Patent publication US8101605B2, “SHIP1 modulators and methods related thereto” (Aquinox Pharmaceuticals Inc., priority 2009, dated 2012)

Tests used:
His-hSHIP1 enzyme = target: T1, His-hSHIP1 enzyme (Homo sapiens, UniProt Q92835); experiment: His-hSHIP1 phosphatase activity assay (IP4 substrate, Biomol Green); format: biochemical; settings: percentage increase relative to background; concentrations ≦300 μM
T1 sequence (Q92835 1-1189): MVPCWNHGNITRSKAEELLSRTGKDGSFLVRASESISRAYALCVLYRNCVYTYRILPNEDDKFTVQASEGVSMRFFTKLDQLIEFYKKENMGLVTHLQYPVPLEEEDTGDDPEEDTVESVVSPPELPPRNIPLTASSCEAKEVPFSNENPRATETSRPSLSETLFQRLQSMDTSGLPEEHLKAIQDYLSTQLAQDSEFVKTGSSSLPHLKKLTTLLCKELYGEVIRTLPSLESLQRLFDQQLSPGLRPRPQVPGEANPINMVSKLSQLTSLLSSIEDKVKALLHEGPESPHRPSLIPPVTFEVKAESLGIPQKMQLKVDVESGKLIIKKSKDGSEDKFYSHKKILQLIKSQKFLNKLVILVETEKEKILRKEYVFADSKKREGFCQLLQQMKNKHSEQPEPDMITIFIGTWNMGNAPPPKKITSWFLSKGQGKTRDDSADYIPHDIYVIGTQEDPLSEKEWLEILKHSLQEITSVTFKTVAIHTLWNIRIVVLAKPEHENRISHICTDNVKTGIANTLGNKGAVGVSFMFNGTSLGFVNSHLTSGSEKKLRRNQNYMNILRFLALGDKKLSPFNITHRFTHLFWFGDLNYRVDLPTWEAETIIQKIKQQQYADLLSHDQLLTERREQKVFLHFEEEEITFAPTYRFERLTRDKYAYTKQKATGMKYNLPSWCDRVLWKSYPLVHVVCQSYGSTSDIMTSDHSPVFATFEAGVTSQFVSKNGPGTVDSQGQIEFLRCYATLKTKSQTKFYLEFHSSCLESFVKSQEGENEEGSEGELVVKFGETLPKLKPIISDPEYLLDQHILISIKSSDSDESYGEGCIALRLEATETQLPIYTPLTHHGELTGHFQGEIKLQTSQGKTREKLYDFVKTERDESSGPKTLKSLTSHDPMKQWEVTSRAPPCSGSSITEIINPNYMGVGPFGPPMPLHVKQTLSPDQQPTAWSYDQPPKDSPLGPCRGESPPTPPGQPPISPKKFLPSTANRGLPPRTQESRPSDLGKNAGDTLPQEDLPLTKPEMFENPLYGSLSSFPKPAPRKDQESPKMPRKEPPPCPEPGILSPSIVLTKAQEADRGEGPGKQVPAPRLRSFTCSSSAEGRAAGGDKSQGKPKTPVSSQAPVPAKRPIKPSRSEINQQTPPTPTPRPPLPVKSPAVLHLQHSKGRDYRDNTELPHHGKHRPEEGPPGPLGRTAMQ
Protocol: Test compounds were dissolved in 95% ethanol to form stock solutions. Before screening, the stock solutions were diluted with Phosphatase Assay Buffer (20 mM Tris-HCL, 10 mM MgCl2 pH 7.5, 0.02% Tween 20) to form working assay solutions that contained 10% ethanol. The assay was carried out on 96-well microtiter plates using a modified procedure of that reported by Ong et al., Blood 110, 1942-1949, 2007 and Yang et al., Org Lett 7, 1073-1076, 2005, both of which references are incorporated herein by reference in their entirety.
Each reaction contained 5 μL of His-hSHIP1 enzyme (15-20 ng), 10 μL of the substrate, 1,3,4,5-inositol tetrakisphosphate (IP4; 50 μM final), 5 μL of Phosphatase Assay Buffer, and 5 μL of test compound at various concentrations in 10% ethanol (0-300 μM final). Control blanks were also prepared by replacing His-hSHIP1 enzyme, IP4, or test compounds with Phosphatase Assay Buffer. After adding the reaction components in a 96-well microtiter plate on ice, the reaction was mixed by briefly shaking the plate vigorously. The reaction was then incubated at 37° C. for 15 min with gentle shaking followed by addition of 100 μL of Biomol Green Reagent (BIOMOL, PA, USA) to terminate the reaction. The free phosphate released from IP4 by His-hSHIP1 bound to the Biomol Green Reagent, turning the solution green in colour. After incubating the mixture for 20 min at room temperature for colour development, the absorbance was read with a SpectraMax Plus 96-well plate reader (Molecular Devices, Sunnyvale, Calif., USA) at a wavelength of 650 nm.
Percent (%) activation in Table 2 is expressed as a percentage increase relative to background. Scoring is expressed as follows: + (<50%); ++ (≧50% but <65%); +++ (≧65%).

OPM2 cells = experiment: Inhibition of OPM2 proliferation (BrdU ELISA); format: cell-based; settings: Homo sapiens, OPM-2, 72 hours, read-out: Scoring: % inhibition of OPM2 proliferation
Protocol: Test compounds were dissolved in 100% DMSO to form stock solutions. Prior to screening, the stock solutions were diluted with complete media (RPMI 1640 containing 10% fetal calf serum, 2 mM L-glutamine and 50 U/mL each of penicillin and streptomycin) to form working assay solutions that contain 0.2% DMSO. The assay was initiated by adding 30,000 OPM2 cells (in 50 μL) to 50 μL of representative compounds at concentrations ranging from 0.03 to 30 μM. The cells were incubated for 72 hours in a humidified CO2 incubator with the addition of 10 μM BrdU for the final 6 hours according to the directions from the Roche BrdU Cell Proliferation ELISA kit used to detect proliferation (Roche, Cat. No. 11 647 229 001). OPM2 cells incubated in 0.1% DMSO in complete media were used as a negative control and the PI3Kα Inhibitor 2 (3-[4-(4-morpholinyl)thieno[3,2-d]pyrimidin-2-yl-phenol, Cayman Chemical, Cat. No. 10010177) was used as a positive control for inhibition of proliferation. At the end of the incubation, the plate containing the labeled cells was centrifuged, the supernatant removed and the cell pellets dried at 60° C. for 1 hour and stored at 4° C. until further analysis. Analysis of BrdU incorporation was done according to the manufacturer's instructions.

| SMILES | Scoring: percent (%) activation of His-hSHIP1 enzyme (His-hSHIP1 enzyme) | inhibition at 30 µM (OPM2 cells) |
| --- | --- | --- |
| CNC(=O)c1cc(C(=O)NC)c2c(c1)S(=O)(=O)C[C@@H]1[C@@]3(C)CCCC(C)(C)[C@@H]3CC[C@@]21C [compound 86, (1R,10R,11S,16S)-1,3-N,5-N,11,15,15-hexamethyl-8,8-dioxo-8λ^6-thiatetracyclo[8.8.0.0^2,7.0^11,16]octadeca-2,4,6-triene-3,5-dicarboxamide] | + (<50%) |  |
| CC1(C)CCC[C@]2(C)[C@H]3CS(=O)(=O)c4cc(O)cc(C(=O)N5CCOCC5)c4[C@]3(C)CC[C@@H]12 [compound 88, (1R,10R,11S,16S)-5-hydroxy-1,11,15,15-tetramethyl-3-[(morpholin-4-yl)carbonyl]-8λ^6-thiatetracyclo-[8.8.0.0^2,7.0^11,16]octadeca-2,4,6-triene-8,8-dione] | + (<50%) |  |
| COC(=O)CNC(=O)c1cc(O)cc2c1[C@]1(C)CC[C@H]3C(C)(C)CCC[C@]3(C)[C@H]1CS2(=O)=O [compound 90, methyl 2-{[(1R,10R,11S,16S)-5-hydroxy-1,11,15,15-tetramethyl-8,8-dioxo-8λ^6-thiatetracyclo[8.8.0.0^2,7.0^11,16]octadeca-2,4,6-trien-3-yl]formamido}acetate] | + (<50%) |  |
| CC1(C)CCC[C@]2(C)[C@H]3CS(=O)(=O)c4cc(O)cc(C(=O)NCC(=O)O)c4[C@]3(C)CC[C@@H]12 [compound 91, 2-{[(1R,10R,11S,16S)-5-hydroxy-1,11,15,15-tetramethyl-8,8-dioxo-8λ^6-thiatetracyclo[8.8.0.0^2,7.0^11,16]octadeca-2,4,6-trien-3-yl]formamido}acetic acid] | + (<50%) |  |
| CC1(C)CCC[C@]2(C)[C@H]3CS(=O)(=O)c4cc(C(=O)NCC(=O)O)cc(O)c4[C@]3(C)CC[C@@H]12 [compound 93, 2-{[(1R,10R,11S,16S)-3-hydroxy-1,11,15,15-tetramethyl-8,8-dioxo-8λ^6-thiatetracyclo[8.8.0.0^2,7.0^11,16]octadeca-2,4,6-trien-5-yl]formamido}acetic acid] | + (<50%) |  |
| CN1CCN(C(=O)c2cc(O)cc3c2[C@]2(C)CC[C@H]4C(C)(C)CCC[C@]4(C)[C@H]2CS3(=O)=O)CC1 [compound 94, (1R,10R,11S,16S)-5-hydroxy-1,11,15,15-tetramethyl-3-[(4-methylpiperazin-1-yl)carbonyl]-8λ^6-thiatetracyclo[8.8.0.0^2,7.0^11,16]octadeca-2,4,6-triene-8,8-dione] | + (<50%) |  |
| CONC(=O)c1cc(O)cc2c1[C@]1(C)CC[C@H]3C(C)(C)CCC[C@]3(C)[C@H]1CS2(=O)=O [compound 95, (1R,10R,11S,16S)-5-hydroxy-N-methoxy-1,11,15,15-tetramethyl-8,8-dioxo-8λ^6-thiatetracyclo[8.8.0.0^2,7.0^11,16]octadeca-2,4,6-triene-3-carboxamide] | + (<50%) |  |
| CONC(=O)c1cc(O)c2c(c1)S(=O)(=O)C[C@@H]1[C@@]3(C)CCCC(C)(C)[C@@H]3CC[C@@]21C [compound 96, (1R,10R,11S,16S)-3-hydroxy-N-methoxy-1,11,15,15-tetramethyl-8,8-dioxo-8λ^6-thiatetracyclo[8.8.0.0^2,7.0^11,16]octadeca-2,4,6-triene-5-carboxamide] | + (<50%) |  |
| CC1(C)CCC[C@]2(C)[C@H]3CS(=O)(=O)c4cc(C(=O)N5CCC(C(=O)O)CC5)cc(O)c4[C@]3(C)CC[C@@H]12 [compound 98, 1-{[(1R,10R,11S,16S)-3-hydroxy-1,11,15,15-tetramethyl-8,8-dioxo-8λ^6-thiatetracyclo[8.8.0.0^2,7.0^11,16]octadeca-2,4,6-trien-5-yl]carbonyl}piperidine-4-carboxylic acid] | + (<50%) |  |
| CC1(C)CCC[C@]2(C)[C@H]3CS(=O)(=O)c4cc(O)cc(C(=O)N5CCNCC5)c4[C@]3(C)CC[C@@H]12 [compound 100, (1R,10R,11S,16S)-5-hydroxy-1,11,15,15-tetramethyl-3-[(piperazin-1-yl)carbonyl]-8λ^6-thiatetracyclo[8.8.0.0^2,7.0^11,16]octadeca-2,4,6-triene-8,8-dione] | + (<50%) |  |
| COc1cc(OCC(=O)O)cc2c1[C@]1(C)CC[C@H]3C(C)(C)CCC[C@]3(C)[C@H]1CS2(=O)=O [compound 104, 2-{[(1R,10R,11S,16S)-3-methoxy-1,11,15,15-tetramethyl-8,8-dioxo-8^6-thiatetracyclo[8.8.0.0^2,7.0^11,16]octadeca-2,4,6-trien-5-yl]oxy}acetic acid] | + (<50%) |  |
| CC1(C)CCC[C@]2(C)[C@H]3CS(=O)(=O)c4cc(OCC(=O)O)cc(O)c4[C@]3(C)CC[C@@H]12 [compound 105, 2-{[(1R,10R,11S,16S)-3-hydroxy-1,11,15,15-tetramethyl-8,8-dioxo-8^6-thiatetracyclo[8.8.0.0^2,7.0^11,16]octadeca-2,4,6-trien-5-yl]oxy}acetic acid] | + (<50%) |  |
| COc1cc(O)c(CN2CCOCC2)c2c1[C@]1(C)CC[C@H]3C(C)(C)CCC[C@]3(C)[C@H]1CS2(=O)=O [compound 106, (1R,10R,11S,16S)-5-hydroxy-3-methoxy-1,11,15,15-tetramethyl-6-(morpholin-4-ylmethyl)-8^6-thiatetracyclo[8.8.0.0^2,7.0^11,16]octadeca-2,4,6-triene-8,8-dione] | + (<50%) |  |
| CC1(C)CCC[C@]2(C)[C@H]3CS(=O)(=O)c4cc(OCC(=O)O)cc(OCC(=O)O)c4[C@]3(C)CC[C@@H]12 [compound 108, 2-{[(1R,10R,11S,16S)-3-(carboxymethoxy)-1,11,15,15-tetramethyl-8,8-dioxo-8^6-thiatetracyclo[8.8.0.0^2,7.0^11,16]octadeca-2,4,6-trien-5-yl]oxy}acetic acid] |  | < 25% |
